Experimental findings from PubChem BioAssay (NCI) are described below.

Test systems include NCI-H226 lung; NCI/ADR-RES ovarian; SN12C renal; SNB-19 CNS; MCF7 breast; LOX IMVI melanoma; RXF 393 renal; SK-OV-3 ovarian; COLO 205 colon; SF-295 CNS; MDA-MB-435; DU-145 prostate; HT29 colon; OVCAR-8 ovarian; SR leukemia; IGROV1 ovarian; SNB-75 CNS; BT-549 breast; HS 578T breast.
Holding throughout (experiment): NCI anticancer screen, dose series, 48 h

The structures appear in SMILES notation.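 Tested at 5 concentrations; 48 h exposure; 96-well plates; endpoints linearly interpolated, else capped at highest concentration. TGI: concentration producing complete growth inhibition.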 A value given as a limit tells only on which side of the number the result lay.

For `CN(C)CC1CN=C(N)O1` (stereo unspecified), the TGI with NCI-H226 lung, with NCI/ADR-RES ovarian, with SN12C renal, with SNB-19 CNS, in the assay with MCF7 breast and with LOX IMVI melanoma was above 100 µM throughout. Besides, the TGI in the assay on RXF 393 renal, in the assay with SK-OV-3 ovarian, in the assay on COLO 205 colon, in the assay on SF-295 CNS, with MDA-MB-435 and in the assay on DU-145 prostate was above 100 µM throughout.
Consider `Cc1nc(C(N)=S)sc1C(=O)CC(=O)C(=O)Nc1ccccc1[N+](=O)[O-]`, for which the TGI with SNB-19 CNS, in the assay with LOX IMVI melanoma, in the assay with HT29 colon, in the assay with OVCAR-8 ovarian, with SR leukemia and with IGROV1 ovarian was above 100 µM each time. The TGI in the assay with RXF 393 renal, in the assay with SK-OV-3 ovarian, in the assay on SF-295 CNS and with SNB-75 CNS was above 100 µM throughout.
In the case of `CCO/C=N\c1c(C#N)c(-c2ccc(Cl)cc2)cn1-c1ccc(C)cc1`, the TGI in the assay with NCI-H226 lung, in the assay with NCI/ADR-RES ovarian, in the assay with SN12C renal, with SNB-19 CNS, in the assay on MCF7 breast and with LOX IMVI melanoma was above 100 µM throughout. Besides, the TGI with HT29 colon, in the assay with BT-549 breast, in the assay on HS 578T breast, with OVCAR-8 ovarian, in the assay with SR leukemia and with IGROV1 ovarian was above 100 µM throughout. The TGI with RXF 393 renal, in the assay with SK-OV-3 ovarian, with COLO 205 colon, in the assay on SF-295 CNS, in the assay with SNB-75 CNS and in the assay on MDA-MB-435 was above 100 µM each time. In the assay on DU-145 prostate, this compound had a TGI above 100 µM.
In the case of `Cc1ccc(/C(O)=C/c2nc3c(nc2NC24CC5CC(CC(C5)C2)C4)c(=O)oc2ccccc23)cc1`, the TGI with NCI-H226 lung, in the assay with SN12C renal, in the assay on SNB-19 CNS, in the assay with LOX IMVI melanoma, in the assay with HT29 colon and with OVCAR-8 ovarian was above 100 µM in each case. In addition, the TGI with SR leukemia is above 100 µM; in the assay on IGROV1 ovarian it was above 100 µM; with RXF 393 renal, above 100 µM; with SK-OV-3 ovarian, above 100 µM; with COLO 205 colon, above 100 µM; with SNB-75 CNS it was 70.1 µM.
In the case of `CC[C@H](Nc1c(O)c2c(c(O)c1Cl)C(=O)C=CC2=O)C(=O)OC`, the TGI in the assay with NCI-H226 lung is above 10 µM; in the assay with NCI/ADR-RES ovarian it was above 10 µM; in the assay on SN12C renal it was 9.16 µM; in the assay on SNB-19 CNS, above 10 µM; in the assay with MCF7 breast, above 10 µM; in the assay with LOX IMVI melanoma, above 10 µM. The TGI is above 10 µM in the assay on HT29 colon; above 10 µM in the assay on BT-549 breast; above 10 µM in the assay with HS 578T breast; above 10 µM in the assay with OVCAR-8 ovarian; 7.74 µM in the assay on SR leukemia; above 10 µM with IGROV1 ovarian. Moreover, the TGI with SK-OV-3 ovarian, in the assay on COLO 205 colon, with SF-295 CNS, in the assay on SNB-75 CNS, with MDA-MB-435 and in the assay on DU-145 prostate was above 10 µM throughout.
For `Cc1ccccc1NC(=O)c1c(C)oc2c1C(=O)c1ccccc1C2=O`, the TGI was above 100 µM with NCI-H226 lung; above 100 µM in the assay with SN12C renal; above 100 µM in the assay with SNB-19 CNS; 41.3 µM in the assay with LOX IMVI melanoma; above 100 µM with HT29 colon; above 100 µM in the assay on OVCAR-8 ovarian. Besides, the TGI with SR leukemia is 75.5 µM; in the assay with IGROV1 ovarian it was above 100 µM; with RXF 393 renal, above 100 µM; with SK-OV-3 ovarian, above 100 µM; in the assay with COLO 205 colon it was above 100 µM; with SF-295 CNS it was above 100 µM. Besides, the TGI with SNB-75 CNS is above 100 µM.
As for `COc1c(OC(C)C)c(OC(C)C)c2oc(=O)n3c2c1C(c1ccccc1-n1c(C)ccc1C)C=C3` (stereo unspecified), the TGI is 38.3 µM in the assay on NCI-H226 lung; above 100 µM with NCI/ADR-RES ovarian; above 100 µM with SN12C renal; above 100 µM with SNB-19 CNS; above 100 µM in the assay with MCF7 breast; 59 µM in the assay with LOX IMVI melanoma. In addition, the TGI with HT29 colon is above 100 µM; with BT-549 breast, above 100 µM; with HS 578T breast, above 100 µM; in the assay on OVCAR-8 ovarian, above 100 µM; with IGROV1 ovarian, above 100 µM; in the assay on RXF 393 renal, 62.5 µM. The TGI in the assay on SK-OV-3 ovarian, with COLO 205 colon, in the assay with SF-295 CNS, in the assay with SNB-75 CNS, in the assay with MDA-MB-435 and in the assay on DU-145 prostate was above 100 µM in each case.
As to `Cn1c(=O)n2n(c1=O)C(S(=O)(=O)c1ccccc1)C2` (stereo unspecified), the TGI with NCI/ADR-RES ovarian, in the assay with SN12C renal, in the assay with SNB-19 CNS, with MCF7 breast, in the assay on LOX IMVI melanoma and in the assay with HT29 colon was above 100 µM throughout. Besides, the TGI in the assay with BT-549 breast, in the assay on HS 578T breast, with OVCAR-8 ovarian, with IGROV1 ovarian, in the assay on RXF 393 renal and with SK-OV-3 ovarian was above 100 µM each time. For the same compound, the TGI with COLO 205 colon, in the assay with SF-295 CNS, in the assay with SNB-75 CNS, with MDA-MB-435 and with DU-145 prostate was above 100 µM throughout.
Consider `Nc1nc(Cl)c(/C=N\O)c(NCC2(CO)CCC2)n1`, for which the TGI in the assay with NCI-H226 lung, with NCI/ADR-RES ovarian, in the assay with SN12C renal, in the assay on SNB-19 CNS, in the assay on MCF7 breast and in the assay with LOX IMVI melanoma was above 100 µM in each case. Further, the TGI in the assay with HT29 colon, in the assay with BT-549 breast, in the assay on HS 578T breast, in the assay with OVCAR-8 ovarian, in the assay on SR leukemia and in the assay with RXF 393 renal was above 100 µM throughout. Besides, the TGI in the assay with COLO 205 colon, in the assay with SF-295 CNS, in the assay with SNB-75 CNS, with MDA-MB-435 and with DU-145 prostate was above 100 µM in each case.
